Data on two molecules can be found in patent US20230242885A1, “METHOD OF PRODUCING CARDIOMYOCYTE POPULATION, METHOD OF PROLIFERATING CARDIOMYOCYTES, CARDIOMYOCYTE POPULATION, TRANSPLANTATION MATERIAL, MULTINUCLEATED CARDIOMYOCYTE, AND KIT FOR PROLIFERATING CARDIOMYOCYTES” (Myoridge Co. Ltd., priority 2020, published 2023).

Series [1] concerns cardiomyocytes induced from human iPS cells (253G1 strain). The experiment in a line: Proliferation culture of cardiomyocytes with WNT signal activator CHIR99021, serial subculture (Example 2). The format is cell-based. The conditions noted are these: for cTnT positive rate (cardiomyocyte purity): CHIR99021 added (1 to 5 μM); for proliferation rate compared with no CHIR99021: CHIR99021 1 to 5 μM; for total cardiomyocyte proliferation: 2.0×10^5 cells/cm^2. On the procedure: A “ratio of multinucleated cardiomyocytes” was determined from a percentage of multinucleated cardiomyocytes in 10,000 cardiomyocytes.
Thereafter, the culture medium was replaced every 3 to 4 days, and culturing was performed for 2 weeks (a first serial subculture).
For the cells obtained after each serial subculture, “cardiomyocyte purity”, “cardiomyocyte proliferation rate”, “ratio of multinucleated cardiomyocytes”, and “average maximum length of multinucleated cardiomyocytes” were determined according to the same procedure as in Example 1.

The subject of series [2] is cardiomyocyte population (third serial subculture). As to the kind of experiment: Drug responsiveness test by calcium imaging. The format is cell-based, human. The settings on record: terfenadine 300 to 900 nM; calcium signal 10 minutes after addition.
Description: The obtained cardiomyocyte population was tested for drug responsiveness. A drug responsiveness test was performed by calcium imaging using a fluorescence microscope. Specifically, the drug responsiveness test was performed by acquiring pulsatile calcium fluorescence movies of cardiomyocytes on a fluorescence microscope Olympus IX83.
In the drug responsiveness test, a mixture having the following composition was adjusted to pH 7.4 and used as a culture solution for cardiomyocytes:
ImageJ-based image analysis software was used for data analysis.

SMILES strings stand for the structures. Some results are limits rather than exact numbers.

With `Cc1cnc(-c2cnc(NCCNc3ccc(C#N)cn3)nc2-c2ccc(Cl)cc2Cl)[nH]1` [CHIR99021, 6-[2-[[4-(2,4-dichlorophenyl)-5-(5-methyl-1H-imidazol-2-yl)pyrimidin-2-yl]amino]ethylamino]pyridine-3-carbonitrile], the “cTnT positive rate (cardiomyocyte purity)” value was no less than 90% in series [1] (after the first serial subculture, before culturing 90 to 96%) and no less than 90% in series [1] (after the second serial subculture). Further, in series [1] (first and second serial subculture, tested 1, 2, 3, 5 μM), the “concentration of CHIR99021 at which the cardiomyocyte proliferation rate was the highest” value came out at 3 µM. Besides, in series [1] (first serial subculture (2 weeks), seeding density 2.0×10^5 cells/cm^2, CHIR99021 3 μM), the cardiomyocyte proliferation rate is given as 4.5 fold. The “proliferation rate compared with no CHIR99021” value in series [1] (first serial subculture) and in series [1] (second serial subculture) was “higher proliferation rates” throughout. Moreover, the total cardiomyocyte proliferation in series [1] (in total after the second serial subculture, CHIR99021 3 μM) is 12.6 fold; in series [1] (in total after the third to fourth serial subcultures, CHIR99021 3 μM), 22.7 fold.
`CC(C)(C)c1ccc(C(O)CCCN2CCC(C(O)(c3ccccc3)c3ccccc3)CC2)cc1` (stereo not drawn) [terfenadine]: the “early afterdepolarization (EAD) response” value in series [2] was “detected”.
